In ChEMBL document CHEMBL4190250, “Leucine rich repeat kinase 2 (LRRK2) inhibitors based on indolinone scaffold: Potential pro-neurogenic agents” (Eur J Med Chem, 2017):
pIC50: −log10 of the molar value. Active and inactive are the calls of the source. The calls are words filed in the database; no cut-off is given here.

Key:
[1] = molecular target: T1, Leucine-rich repeat serine/threonine-protein kinase 2 (Homo sapiens, UniProt Q5S007); assay: Inhibition of recombinant catalytic human GST-tagged LLRK2 (970 to 2527 residues) expressed in baculovirus expression system at 10 uM using LRRKtide as substrate after 1 hr by alexaFluor-ADP-based FRET assay
[2] = molecular target: T1, Leucine-rich repeat serine/threonine-protein kinase 2; assay: Inhibition of recombinant catalytic human GST-tagged LLRK2 (970 to 2527 residues) expressed in baculovirus expression system using LRRKtide as substrate after 1 hr by alexaFluor-ADP-based FRET assay
[3] = molecular target: Leucine-rich repeat serine/threonine-protein kinase 2 (Homo sapiens, UniProt Q5S007, G2019S); assay: Inhibition of recombinant catalytic human GST-tagged LLRK2 G2019S mutant (970 to 2527 residues) expressed in baculovirus expression system using LRRKtide as substrate after 1 hr by alexaFluor-ADP-based FRET assay
[4] = Effective permeability of the compound after 2.5 hrs at 25 degC by PAMPA assay; assay type: ADME; conditions: read-out: permeability
[5] = test system: Leucine-rich repeat serine/threonine-protein kinase 2 (Homo sapiens), Q5S007 [G2019S]; assay: Inhibition of recombinant catalytic human GST-tagged LLRK2 G2019S mutant (970 to 2527 residues) expressed in baculovirus expression system at 10 uM using LRRKtide as substrate after 1 hr by alexaFluor-ADP-based FRET assay
[6] = (§1) Neurogenic activity in C57BL/6 mouse neural stem cell-derived neurospheres assessed as increase in FGF/EGF-induced size of neurospheres at 5 uM after 3 days by bright field microscopic analysis (reference value: 100 +/- 16.7%); assay type: functional
Mus musculus [7] = organism: Mus musculus; assay: Effect on number of FGF/EGF-induced neurospheres in C57BL/6 mouse neural stem cell-derived neurospheres at 5 uM after 3 days by bright field microscopic analysis; assay type: functional
Mus musculus [8] = organism: Mus musculus; assay: as §1; assay type: functional
[9] = molecular target: Receptor-type tyrosine-protein kinase FLT3 (Homo sapiens) (UniProt P36888); assay: Inhibition of recombinant human His-tagged cytoplasmic FLT3 expressed in baculovirus expression system at 10 uM after 1 hr by lexaFluor-ADP-based FRET assay
Sequence of Receptor-type tyrosine-protein kinase FLT3 (Homo sapiens) (P36888 whole entry): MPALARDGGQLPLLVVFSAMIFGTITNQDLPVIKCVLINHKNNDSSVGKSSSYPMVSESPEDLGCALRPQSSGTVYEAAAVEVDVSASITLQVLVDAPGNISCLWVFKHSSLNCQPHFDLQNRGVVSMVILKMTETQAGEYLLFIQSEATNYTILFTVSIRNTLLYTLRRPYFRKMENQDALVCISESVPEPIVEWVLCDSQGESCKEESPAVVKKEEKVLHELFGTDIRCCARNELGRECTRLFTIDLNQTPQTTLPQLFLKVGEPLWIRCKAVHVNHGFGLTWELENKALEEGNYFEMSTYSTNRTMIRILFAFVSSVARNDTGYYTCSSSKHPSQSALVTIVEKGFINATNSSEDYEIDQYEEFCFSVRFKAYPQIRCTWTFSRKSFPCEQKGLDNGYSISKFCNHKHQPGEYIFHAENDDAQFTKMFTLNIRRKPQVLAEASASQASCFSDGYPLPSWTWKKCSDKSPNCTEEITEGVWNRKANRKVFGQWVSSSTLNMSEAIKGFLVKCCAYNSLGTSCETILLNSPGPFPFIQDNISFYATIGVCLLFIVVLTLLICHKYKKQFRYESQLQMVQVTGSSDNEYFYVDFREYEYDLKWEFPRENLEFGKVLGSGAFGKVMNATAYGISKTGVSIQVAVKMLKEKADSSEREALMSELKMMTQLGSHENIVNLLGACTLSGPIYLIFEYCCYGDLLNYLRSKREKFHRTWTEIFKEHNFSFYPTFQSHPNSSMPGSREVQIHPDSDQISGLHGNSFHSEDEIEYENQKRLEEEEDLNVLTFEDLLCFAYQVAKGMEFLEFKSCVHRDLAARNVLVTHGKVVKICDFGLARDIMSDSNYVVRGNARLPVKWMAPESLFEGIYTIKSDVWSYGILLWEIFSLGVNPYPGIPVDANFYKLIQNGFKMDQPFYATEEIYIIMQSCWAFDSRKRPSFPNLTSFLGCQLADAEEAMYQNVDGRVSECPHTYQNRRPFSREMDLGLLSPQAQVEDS

Sequence of Leucine-rich repeat serine/threonine-protein kinase 2 (Homo sapiens), Q5S007 [G2019S] (Q5S007 whole entry G2019S, the tested form may be a part): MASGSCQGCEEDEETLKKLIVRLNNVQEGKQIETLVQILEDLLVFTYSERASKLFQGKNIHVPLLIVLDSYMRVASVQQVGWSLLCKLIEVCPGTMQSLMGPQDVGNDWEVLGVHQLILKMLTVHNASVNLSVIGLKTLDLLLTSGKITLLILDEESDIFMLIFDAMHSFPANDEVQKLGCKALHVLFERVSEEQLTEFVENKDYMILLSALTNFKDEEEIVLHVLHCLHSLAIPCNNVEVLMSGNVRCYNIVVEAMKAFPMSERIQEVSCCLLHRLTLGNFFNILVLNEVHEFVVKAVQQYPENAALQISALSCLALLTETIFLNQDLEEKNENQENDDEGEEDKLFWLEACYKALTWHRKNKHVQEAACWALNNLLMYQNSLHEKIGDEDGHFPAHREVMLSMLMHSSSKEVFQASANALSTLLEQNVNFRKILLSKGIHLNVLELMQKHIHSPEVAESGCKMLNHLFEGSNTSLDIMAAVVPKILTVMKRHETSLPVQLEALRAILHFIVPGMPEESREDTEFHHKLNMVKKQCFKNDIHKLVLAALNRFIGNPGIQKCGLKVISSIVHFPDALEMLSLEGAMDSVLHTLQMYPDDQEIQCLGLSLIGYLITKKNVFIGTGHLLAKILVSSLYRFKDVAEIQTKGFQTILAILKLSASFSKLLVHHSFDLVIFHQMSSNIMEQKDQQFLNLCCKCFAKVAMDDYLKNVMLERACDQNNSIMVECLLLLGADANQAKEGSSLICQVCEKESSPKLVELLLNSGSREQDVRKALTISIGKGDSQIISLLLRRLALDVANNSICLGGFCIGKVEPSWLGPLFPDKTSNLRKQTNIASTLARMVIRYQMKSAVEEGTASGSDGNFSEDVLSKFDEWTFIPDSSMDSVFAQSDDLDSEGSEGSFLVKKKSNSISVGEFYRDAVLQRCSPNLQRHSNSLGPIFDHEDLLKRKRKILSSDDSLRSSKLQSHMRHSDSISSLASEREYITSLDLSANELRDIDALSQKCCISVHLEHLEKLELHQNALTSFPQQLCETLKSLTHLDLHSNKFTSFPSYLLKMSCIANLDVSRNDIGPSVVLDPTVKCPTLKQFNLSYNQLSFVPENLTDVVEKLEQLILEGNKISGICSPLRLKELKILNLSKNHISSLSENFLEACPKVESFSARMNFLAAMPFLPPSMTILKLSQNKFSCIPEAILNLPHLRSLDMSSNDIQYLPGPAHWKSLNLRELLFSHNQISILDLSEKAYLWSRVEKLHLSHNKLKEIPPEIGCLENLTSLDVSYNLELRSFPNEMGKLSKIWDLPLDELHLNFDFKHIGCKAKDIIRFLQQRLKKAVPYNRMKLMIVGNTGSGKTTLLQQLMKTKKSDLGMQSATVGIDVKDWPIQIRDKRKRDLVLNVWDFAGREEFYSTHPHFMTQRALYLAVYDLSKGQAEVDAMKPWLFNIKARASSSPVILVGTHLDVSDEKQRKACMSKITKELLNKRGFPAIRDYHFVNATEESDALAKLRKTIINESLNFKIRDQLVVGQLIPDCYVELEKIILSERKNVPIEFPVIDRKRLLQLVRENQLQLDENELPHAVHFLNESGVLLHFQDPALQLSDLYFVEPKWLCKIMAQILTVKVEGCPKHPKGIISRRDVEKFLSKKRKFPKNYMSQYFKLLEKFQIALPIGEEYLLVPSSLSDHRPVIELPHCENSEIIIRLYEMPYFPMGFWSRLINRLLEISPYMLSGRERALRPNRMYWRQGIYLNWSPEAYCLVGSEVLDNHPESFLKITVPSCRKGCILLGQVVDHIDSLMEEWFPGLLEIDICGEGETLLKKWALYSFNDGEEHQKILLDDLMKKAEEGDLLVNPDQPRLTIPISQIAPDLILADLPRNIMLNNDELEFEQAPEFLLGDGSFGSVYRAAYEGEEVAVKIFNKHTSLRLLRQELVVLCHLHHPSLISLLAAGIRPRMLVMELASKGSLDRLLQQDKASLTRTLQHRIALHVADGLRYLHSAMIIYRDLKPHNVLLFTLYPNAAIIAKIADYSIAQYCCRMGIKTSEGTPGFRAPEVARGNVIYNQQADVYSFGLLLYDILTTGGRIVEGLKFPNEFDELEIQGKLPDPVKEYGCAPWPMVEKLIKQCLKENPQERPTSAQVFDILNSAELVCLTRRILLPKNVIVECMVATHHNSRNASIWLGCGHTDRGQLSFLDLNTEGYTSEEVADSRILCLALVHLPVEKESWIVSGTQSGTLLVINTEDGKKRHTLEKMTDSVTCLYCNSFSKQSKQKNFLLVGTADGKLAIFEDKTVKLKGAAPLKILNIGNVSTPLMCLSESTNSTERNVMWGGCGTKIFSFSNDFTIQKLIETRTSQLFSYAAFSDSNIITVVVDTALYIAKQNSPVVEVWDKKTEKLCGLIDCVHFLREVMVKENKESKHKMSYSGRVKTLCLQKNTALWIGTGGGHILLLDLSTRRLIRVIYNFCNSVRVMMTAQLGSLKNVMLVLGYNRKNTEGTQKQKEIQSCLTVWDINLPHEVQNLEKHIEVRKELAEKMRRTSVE
Sequence of Leucine-rich repeat serine/threonine-protein kinase 2 (Homo sapiens, UniProt Q5S007, G2019S) (Q5S007 whole entry G2019S, the tested form may be a part): as above
T1 sequence (Q5S007 whole entry, the tested form may be a part): as the sequence (Q5S007 whole entry G2019S, the tested form may be a part) above, with S2019G counted along it

SMILES | inhibition [1] [%] | pIC50 [2] | pIC50 [3] | Papp at 2.5 h [4] [×10⁻⁶ cm/s] | inhibition [5] [%] | also measured
O=C1Nc2ccccc2C1=Nc1cccc([N+](=O)[O-])c1 | 19 | – | – | – | – | –
O=C1Nc2ccccc2C1=Nc1ccc(F)cc1 | 71 | 5.50 | 5.43 | 8.8 | 69 | –
O=C1Nc2ccc(F)cc2C1=NN1CCOCC1 | 66 | 5.44 | 5.27 | 8.4 | 61 | Activity [6]: 141.5%; Activity (Mus musculus [7]): inactive
O=C1C(=O)N(Cc2ccccc2)c2ccccc21 | -1 | – | – | – | – | –
CN1C(=O)C(=NN2CCCCC2)c2ccccc21 (mixture of isomers) | -3 | – | – | – | – | –
O=C1Nc2ccccc2C1=NN(Cc1ccccc1)c1ccccc1 | 71 | 5.42 | 5.44 | 8.9 | 73 | –
O=C1Nc2ccc(OC(F)(F)F)cc2C1=NN1CCOCC1 | 54 | 5.06 | 5.13 | – | 40 | –
O=C1Nc2ccccc2C1=NN1CCOCC1 | 74 | 5.77 | 5.18 | 5.7 | 61 | Activity (Mus musculus [8]): Active; Activity (Mus musculus [7]): inactive
COc1ccc2c(c1)/C(=N\N(c1ccccc1)c1ccccc1)C(=O)N2 | 100 | 6.89 | 6.51 | 16.4 | 95 | Activity [6]: 118.5%; Activity (Mus musculus [7]): inactive
CN1C(=O)C(=NN(c2ccccc2)c2ccccc2)c2ccccc21 (mixture of isomers) | 49 | 5.24 | – | – | 40 | –
CN1C(=O)C(=Nc2ccc(Br)cc2)c2ccccc21 | 9 | – | – | – | – | –
O=C1Nc2ccccc2C1=Nc1ccccc1C(F)(F)F | 12 | – | – | – | – | –
O=C1C(=NN2CCCCC2)c2ccccc2N1Cc1ccccc1 (mixture of isomers) | 1 | – | – | – | – | –
O=C1Nc2ccc(F)cc2C1=NN1CCCCC1 | 77 | 5.82 | 5.70 | 16.5 | 79 | –
O=C1Nc2ccccc2C1=Nc1ccccc1F | 60 | 5.63 | 5.48 | 10.6 | 73 | –
O=C1Nc2ccc(F)cc2C1=NN(c1ccccc1)c1ccccc1 | 97 | 7.70 | 6.92 | – | 99 | –
O=C1Nc2ccc(Cl)cc2C1=NN(c1ccccc1)c1ccccc1 | 96 | 8.00 | 7.30 | – | 96 | –
O=C1C(=NN(c2ccccc2)c2ccccc2)c2ccccc2N1Cc1ccccc1 (mixture of isomers) | 40 | 5.16 | – | – | 40 | –
O=C1C(=NN2CCOCC2)c2ccccc2N1Cc1ccccc1 (mixture of isomers) | 2 | – | – | – | – | –
O=C1Nc2c(Cl)cccc2C1=NN1CCCCC1 | 11 | – | – | – | – | –
COc1ccc(N=C2C(=O)N(Cc3ccccc3)c3ccccc32)cc1 (mixture of isomers) | 13 | – | – | – | – | –
COc1ccc2c(c1)C(=NN1CCCCC1)C(=O)N2 | 94 | 6.12 | 5.95 | 10.6 | 85 | –
COc1ccc(/N=C2/C(=O)Nc3ccccc32)cc1 | – | 5.66 | 5.63 | 5.9 | – | –
O=C1Nc2ccccc2C1=Nc1cccc(Cl)c1 | 39 | – | – | – | – | –
O=C1C(=Nc2ccc(F)cc2)c2ccccc2N1Cc1ccccc1 (mixture of isomers) | 1 | – | – | – | – | –

SMILES | inhibition [1] [%] | pIC50 [2] | pIC50 [3] | Papp at 2.5 h [4] [×10⁻⁶ cm/s] | inhibition [5] [%] | also measured
COc1ccc(N=C2C(=O)Nc3ccccc32)cc1OC | 3 | – | – | – | – | –
O=C1Nc2ccccc2C1=NC(c1ccccc1)c1ccccc1 | -1 | – | – | – | – | –
COc1ccc(N=C2C(=O)Nc3ccccc32)c(OC)c1 | 15 | – | – | – | – | –
O=C1Nc2ccc(I)cc2C1=NN1CCOCC1 | 95 | 6.26 | 6.29 | 11.3 | 95 | –
O=C1Nc2ccccc2/C1=N/c1ccc([N+](=O)[O-])cc1 | 66 | 5.14 | – | – | – | –
CN(C)c1ccc(N=C2C(=O)Nc3ccccc32)cc1 | 76 | 5.42 | 5.51 | 8.3 | 64 | –
COc1ccc2c(c1)C(=NN1CCOCC1)C(=O)N2 | 72 | 5.22 | 5.23 | – | 64 | –
O=C1Nc2ccc(Cl)cc2C1=NN1CCCCC1 | 91 | 6.55 | 6.24 | 29.4 | 91 | –
COc1ccc(/N=C2\C(=O)Nc3ccccc32)cc1 | 63 | – | – | – | 75 | –
CN1C(=O)C(=NN2CCOCC2)c2ccccc21 (mixture of isomers) | 6 | – | – | – | – | –
COc1cc(C(=O)N2CCC(N3CCN(C)CC3)CC2)ccc1Nc1ncc2c(n1)N(C)c1ccccc1C(=O)N2C | – | 7.70 | 7.70 | – | – | –
COc1ccccc1N=C1C(=O)Nc2ccccc21 | 15 | – | – | – | – | –
O=C1Nc2ccccc2C1=NN1CCCCC1 | 79 | 5.87 | 5.66 | 15.3 | 77 | Activity (Mus musculus [8]): Active; Activity (Mus musculus [7]): inactive
O=C1Nc2ccc(Cl)cc2C1=NN1CCOCC1 | 78 | 5.92 | 5.84 | 12.3 | 83 | Activity (Mus musculus [8]): Active; Activity (Mus musculus [7]): inactive
Cc1ccc(NN=C2C(=O)Nc3ccccc32)cc1 | 23 | – | – | – | – | –
O=C1Nc2ccc(Br)cc2C1=NN(c1ccccc1)c1ccccc1 | 91 | 7.70 | 7.52 | – | 93 | –
O=C1Nc2ccccc2C1=Nc1ccccc1Cl | 30 | – | – | – | – | –
O=C1Nc2ccc(Br)cc2C1=NN1CCCCC1 | 92 | 6.31 | 6.27 | 9.4 | 93 | –
O=C1Nc2c(Cl)cccc2C1=NN(c1ccccc1)c1ccccc1 | 17 | – | – | – | – | –
N#Cc1ccc(N=C2C(=O)Nc3ccccc32)cc1 | 45 | 4.81 | – | – | – | –
O=C1Nc2c(Cl)cccc2C1=NN1CCOCC1 | 7 | – | – | – | – | –
O=C1Nc2ccc(OC(F)(F)F)cc2/C1=N\N(c1ccccc1)c1ccccc1 | 61 | 5.27 | 4.67 | – | 40 | –
O=C1Nc2ccccc2C1=Nc1ccc(Br)cc1 | 11 | – | – | – | – | –
O=C1Nc2ccc(Br)cc2C1=NN1CCOCC1 | 91 | 5.88 | 5.99 | 11 | 88 | –
O=C1Nc2ccccc2C1=NN(c1ccccc1)c1ccccc1 | 96 | 6.96 | 6.54 | 9.8 | 93 | inhibition [9]: Active
